Assay: Gravimetric vapour sorption (GVS) / moisture sorption
Assay type: physicochemical
Settings: at 95% RH; 25° C.
Procedure: Gravimetric Vapour Sorption (GVS) Analysis
Measurements are performed on a multi sample instrument SPS-100n (Projekt Messtechnik, Ulm, Germany) operated in stepping mode at 25° C.

Moisture sorption: Sorption of 6.9% at 95% RH
SMILES: O=C(N[C@H]1CCN(CC2CC2)C[C@@H]1C(=O)NC1(c2ncccn2)CC1)c1cc(-c2ccc(F)cc2F)on1 [Example 2, (3S,4S)-1-Cyclopropylmethyl-4-{[5-(2,4-difluoro-phenyl)-isoxazole-3-carbonyl]-amino}-piperidine-3-carboxylic acid (1-pyrimidin-2-yl-cyclopropyl)-amide in Crystalline Form 2]
